The results in this text go back to patent publication US8492564B2 (priority 2008, dated 2013).

Assay [1] concerns the target human KOPR (hKOPR) (Homo sapiens (Human), UniProt P41145). The assay is classed as binding.
The target in assay [2] is hKOPR (Homo sapiens (Human), UniProt P41145). Description: biochemical. As to conditions: for Emax: read-out: Efficacy (Percent of the maximal effect of U50,488H).
The nature of assay [3]: Locomotor activity. It is filed as in vivo. As to conditions: rats.
The nature of assay [4]: Intracranial self-stimulation (ICSS). It is filed as in vivo. To be noted: 1.0 mg/kg, IP, rats, 1-hour test sessions.
A short description of assay [5]: Forced swim test (FST). It is filed as in vivo. As to conditions: rats. As to the method:
The FST is a two day procedure in which rats swim under conditions in which escape is not possible. On the first day, the rats are forced to swim for 15 minutes. The rats initially search for an escape from the water, but eventually adopt a posture of immobility in which they make only the movements necessary to keep their heads above water. Upon re-testing one day later, latencies to become immobile (an indicator of how rapidly the rats “give up” in response to a familiar stressor) are decreased, which is inferred as despair. Standard antidepressants such as desipramine (DMI) and fluoxetine (FLX) extend latencies to become immobile. Drug efficacy in this animal model is predictive of antidepressant efficacy in humans. The FST has been described by Mague et al., J. Pharmacol. Exp. Ther. 305:323 (2003).

The structures appear in SMILES notation. Where two headings read alike, the source gives them in different places.

As for `C=Cc1occc1[C@@H]1C[C@]2(C)[C@H]3C(=O)[C@@H](OC(C)=O)C[C@@H](C(=O)OC)[C@]3(C)CC[C@H]2C(=O)O1` [Compound 3], in assay [1], the inhibition constant (Ki) is 7.1 ± 0.1 nM. Besides, the EC50 in assay [2] (read-out: EC50) was 4.6 ± 0.1 nM. For the same molecule, the Emax in assay [2] is 120 ± 6%.

`COC(=O)[C@@H]1C[C@H](OC(C)=O)C(=O)[C@H]2[C@@]1(C)CCC1C(=O)O[C@H](C(=O)O)C[C@@]12C` (some centres unmarked) [Compound 7]: in assay [1], the affinity corresponds to a Ki of 55 ± 23 nM. The “Efficacy (Percent of the maximal effect of U50,488H)” value in assay [2] was 99 ± 1%. In addition, in assay [2] (read-out: EC50), the EC50 came to 167 ± 35 nM.

Turning to `COC[C@@H]1C[C@]2(C)[C@H]3C(=O)[C@@H](OC(C)=O)C[C@@H](C(=O)OC)[C@]3(C)CC[C@H]2C(=O)O1` [Compound 9], in assay [1], affinity was put at a Ki of 498 ± 71 nM. Besides, the concentration giving a half-maximal response (EC50) in assay [2] (read-out: EC50) is 330 ± 30 nM. Also, the Emax in assay [2] is 98 ± 2%.

With `CCOC[C@@H]1C[C@]2(C)[C@H]3C(=O)[C@@H](OC(C)=O)C[C@@H](C(=O)OC)[C@]3(C)CC[C@H]2C(=O)O1` [Compound 10], in assay [1], the Ki amounted to 497 ± 13 nM. In assay [2], the concentration for a half-maximal effect (EC50) is greater than 1000 nM.

For the molecule `COC(=O)[C@@H]1C[C@H](OC(C)=O)C(=O)[C@H]2[C@@]1(C)CC[C@H]1C(=O)O[C@H](COC(C)=O)C[C@]21C` [Compound 11], the Ki in assay [1] was 555 ± 97 nM. The 50% effective concentration (EC50) in assay [2] (read-out: EC50) was determined as 299 ± 13 nM. In addition, in assay [2], the Emax is 113 ± 3%.

In assay [1], `COC(=O)[C@@H]1C[C@H](OC(C)=O)C(=O)[C@H]2[C@@]1(C)CC[C@H]1C(=O)O[C@H](C(=O)c3cccs3)C[C@]21C` [Compound 13] had a Ki of 38 ± 10 nM. Further, the EC50 in assay [2] (read-out: EC50) was 101 ± 6 nM. Moreover, the Emax in assay [2] amounted to 103 ± 1%.

Regarding `COC(=O)[C@@H]1C[C@H](OC(C)=O)C(=O)[C@H]2[C@@]1(C)CC[C@H]1C(=O)O[C@H](C(=O)c3cnccn3)C[C@]21C` [Compound 16], the Ki in assay [1] was determined as 83 ± 28 nM. Moreover, the 50% effective concentration (EC50) in assay [2] (read-out: EC50) is 195 ± 6 nM. Also, in assay [2], the Emax amounted to 103 ± 3%.

`COC(=O)[C@@H]1C[C@H](OC(C)=O)C(=O)[C@H]2[C@@]1(C)CC[C@H]1C(=O)O[C@H](C(O)c3ccco3)C[C@]21C` (some centres unmarked) [Compound 17] had a Ki in assay [1] of 20 ± 2 nM. For the same molecule, the concentration for a half-maximal effect (EC50) in assay [2] (read-out: EC50) stood at 36 ± 5 nM. Also, in assay [2], the Emax is 114 ± 4%.

In the case of `COC(=O)[C@@H]1C[C@]2(C)[C@H]3C(=O)[C@@H](OC(C)=O)C[C@@H](C(=O)OC)[C@]3(C)CC[C@H]2C(=O)O1` [Compound 18], the Ki in assay [1] stood at 154 ± 27 nM. For the same molecule, the EC50 in assay [2] (read-out: EC50) was determined as 361 ± 25 nM. Also, the Emax in assay [2] amounted to 99 ± 2%.

Consider `CCOC(=O)[C@@H]1C[C@]2(C)[C@H]3C(=O)[C@@H](OC(C)=O)C[C@@H](C(=O)OC)[C@]3(C)CC[C@H]2C(=O)O1` [Compound 19], for which, in assay [1], the affinity, expressed as Ki, was 196 ± 23 nM. In addition, the concentration for a half-maximal effect (EC50) in assay [2] (read-out: EC50) was 508 ± 8 nM. For the same molecule, the Emax in assay [2] is 94 ± 2%.

The molecule `COC(=O)[C@@H]1C[C@H](OC(C)=O)C(=O)[C@H]2[C@@]1(C)CC[C@H]1C(=O)O[C@H](C(=O)OC(C)C)C[C@]21C` [Compound 20] had an inhibition constant Ki in assay [1] of 109 ± 12 nM. Besides, the half-maximal effective concentration (EC50) in assay [2] (read-out: EC50) came to 337 ± 54 nM. Besides, the Emax in assay [2] was found to be 94 ± 2%.

`COC(=O)[C@@H]1C[C@H](OC(C)=O)C(=O)[C@H]2[C@@]1(C)CC[C@H]1C(=O)O[C@H](c3ccoc3)C[C@]21C` [Salvinorin A, salvinorin A]: the “effect on locomotor activity” value in assay [3] is reported as “without affecting locomotor activity”. For the same molecule, the ICSS thresholds entry in assay [4] is recorded as “significantly elevated”. Also, the “effect in the forced swim test” value in assay [5] is on record as “depressive-like effects”.

As a reminder, the Ki is the dissociation constant of the complex between target and ligand, obtained from inhibition or displacement. Read a high Ki as weaker binding. For orientation: EC50 means the midpoint of the concentration-response curve.
